In ChEMBL document CHEMBL6153132 (J Med Chem, 2025):
Calls of active or inactive are those of the source. The calls are words filed in the database; no cut-off is given here.

Experiments:
cells = details: Homo sapiens, Cal27CisR, 72 h
Plasmodium falciparum [1] = test: microbe, parasite or virus in culture; details: 3D7, 72 h
CAL-27 [2] = test: cells; details: Homo sapiens, CAL-27, 72 h
Histone deacetylase 1 = Histone deacetylase 1 (Homo sapiens, UniProt Q13547); test: Inhibition of human HDAC1 using ZMAL(Z-Lys(Ac)-AMC as substrate preincubated for 60 mins followed by substrate addition and measured after 90 mins by microplate reader analysis
Plasmodium falciparum [3] = test: microbe, parasite or virus in culture; details: Dd2, 72 h
[4] = target: T1, Protein deacetylase HDAC6 (Homo sapiens, UniProt Q9UBN7); test: Inhibition of human HDAC6 using ZMAL(Z-Lys(Ac)-AMC as substrate preincubated for 15 mins followed by substrate addition and measured after 90 mins by microplate reader analysis
T1 sequence (Q9UBN7 whole entry): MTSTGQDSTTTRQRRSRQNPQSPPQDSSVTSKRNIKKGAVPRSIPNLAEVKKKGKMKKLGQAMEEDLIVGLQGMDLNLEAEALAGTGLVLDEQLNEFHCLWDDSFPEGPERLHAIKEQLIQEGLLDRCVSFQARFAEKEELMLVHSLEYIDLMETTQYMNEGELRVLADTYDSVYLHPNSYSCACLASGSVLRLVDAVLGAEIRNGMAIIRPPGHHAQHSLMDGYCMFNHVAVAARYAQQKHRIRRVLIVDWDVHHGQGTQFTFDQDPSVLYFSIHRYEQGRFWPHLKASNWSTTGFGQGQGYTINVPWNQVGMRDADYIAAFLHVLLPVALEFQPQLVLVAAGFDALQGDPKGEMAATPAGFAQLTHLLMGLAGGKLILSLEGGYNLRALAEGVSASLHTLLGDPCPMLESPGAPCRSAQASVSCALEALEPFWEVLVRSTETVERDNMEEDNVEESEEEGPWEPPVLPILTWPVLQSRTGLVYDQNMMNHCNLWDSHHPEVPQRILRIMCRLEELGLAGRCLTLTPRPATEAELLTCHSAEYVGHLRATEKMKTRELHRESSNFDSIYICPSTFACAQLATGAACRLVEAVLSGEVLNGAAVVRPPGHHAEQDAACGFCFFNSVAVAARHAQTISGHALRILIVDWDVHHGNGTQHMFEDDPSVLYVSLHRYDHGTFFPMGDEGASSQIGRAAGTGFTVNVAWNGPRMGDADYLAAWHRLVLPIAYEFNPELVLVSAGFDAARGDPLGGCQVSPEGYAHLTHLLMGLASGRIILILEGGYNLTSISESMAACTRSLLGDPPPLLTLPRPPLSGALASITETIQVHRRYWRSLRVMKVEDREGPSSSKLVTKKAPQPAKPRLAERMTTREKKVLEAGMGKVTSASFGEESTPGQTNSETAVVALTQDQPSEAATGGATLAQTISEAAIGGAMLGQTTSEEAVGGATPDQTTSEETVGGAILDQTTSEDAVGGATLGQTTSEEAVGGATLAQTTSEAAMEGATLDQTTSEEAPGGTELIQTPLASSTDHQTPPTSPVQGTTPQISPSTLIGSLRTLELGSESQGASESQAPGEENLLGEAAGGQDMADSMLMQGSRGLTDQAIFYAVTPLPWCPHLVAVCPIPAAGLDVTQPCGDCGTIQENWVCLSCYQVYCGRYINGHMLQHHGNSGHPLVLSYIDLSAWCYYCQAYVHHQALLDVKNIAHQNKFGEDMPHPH

[5] = Metabolic stability in human liver microsome assessed as half life; format: ADME, microsomes
[6] = Metabolic stability in human liver microsome assessed as intrinsic clearance; format: ADME; details: microsomes
Histone deacetylase 3 = Histone deacetylase 3 (Homo sapiens, UniProt O15379); test: Inhibition of human HDAC3 using ZMAL(Z-Lys(Ac)-AMC as substrate preincubated for 60 mins followed by substrate addition and measured after 90 mins by microplate reader analysis
A2780 = test: Cytotoxicity against human A2780 cells assessed as cell viability incubated for 72 hrs by MTS assay; format: functional, cell-based; details: A2780, 72 h
A2780cisR = test: Cytotoxicity against human A2780 cisR cells assessed as cell viability up to 100 uM incubated for 72 hrs by MTS assay; format: functional, cell-based
[7] = Cytotoxicity against human Cal27CisR cells assessed as cell viability incubated for 72 hrs by MTS assay; format: functional, cell-based
CAL-27 [8] = test: Cytotoxicity against human CAL-27 cells assessed as cell viability incubated for 72 hrs by MTS assay; format: functional, cell-based; details: CAL-27, 72 h

Chain of Histone deacetylase 1 (Q13547 whole entry): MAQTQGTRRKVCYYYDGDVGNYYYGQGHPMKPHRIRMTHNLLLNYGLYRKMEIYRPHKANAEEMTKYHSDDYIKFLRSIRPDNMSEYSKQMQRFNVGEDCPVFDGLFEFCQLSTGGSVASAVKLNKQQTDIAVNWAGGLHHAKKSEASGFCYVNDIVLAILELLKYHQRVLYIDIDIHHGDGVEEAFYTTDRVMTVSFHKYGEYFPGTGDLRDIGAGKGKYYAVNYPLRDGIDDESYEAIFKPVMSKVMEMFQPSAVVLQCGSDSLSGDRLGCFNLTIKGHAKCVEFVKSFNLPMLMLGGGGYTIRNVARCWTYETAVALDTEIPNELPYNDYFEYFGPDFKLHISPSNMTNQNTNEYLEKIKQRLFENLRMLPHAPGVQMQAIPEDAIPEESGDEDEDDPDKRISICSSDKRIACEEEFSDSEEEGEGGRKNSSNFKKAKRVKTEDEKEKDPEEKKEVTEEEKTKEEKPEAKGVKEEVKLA
Chain of Histone deacetylase 3 (O15379 whole entry): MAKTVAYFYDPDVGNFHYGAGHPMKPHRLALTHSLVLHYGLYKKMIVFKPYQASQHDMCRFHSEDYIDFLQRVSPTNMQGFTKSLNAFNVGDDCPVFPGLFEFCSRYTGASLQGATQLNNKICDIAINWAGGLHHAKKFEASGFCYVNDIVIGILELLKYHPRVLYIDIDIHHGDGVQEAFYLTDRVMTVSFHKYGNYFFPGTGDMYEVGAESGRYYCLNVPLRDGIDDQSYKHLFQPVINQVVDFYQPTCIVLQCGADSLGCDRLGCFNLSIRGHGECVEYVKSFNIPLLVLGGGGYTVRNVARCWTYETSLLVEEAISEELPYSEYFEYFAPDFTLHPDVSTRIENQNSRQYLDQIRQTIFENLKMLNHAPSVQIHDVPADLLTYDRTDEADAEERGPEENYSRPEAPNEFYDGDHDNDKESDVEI

SMILES	IC50 (cells)	IC50 (Plasmodium falciparum [1])	IC50 (CAL-27 [2])	IC50 (Histone deacetylase 1)	IC50 (Plasmodium falciparum [3])	IC50 [4]	t1/2 ([5]; microsomes)	CLH [6]	IC50 (Histone deacetylase 3)	half-life ([5]; liver microsomes)	IC50 (A2780)	Activity (A2780cisR)	IC50 [7]	IC50 (CAL-27 [8])
CN(C)c1ccc(C(=O)N(CC(=O)NCc2ccccc2)Cc2ccc(-c3nnc(C(F)F)o3)cc2)cc1	> 100 µM	18.1 µM	> 100 µM	> 10 µM	23.7 µM	> 10 µM	–	–	–	–	–	–	–	–
CN(C)c1ccc(C(=O)N(CC(=O)NCc2ccccc2)Cc2ccc(C(=O)O)cc2)cc1	> 100 µM	> 100 µM	74.3 µM	13.8 µM	> 100 µM	> 10 µM	–	–	–	–	–	–	–	–
CN(C)c1ccc(C(=O)N(CC(=O)NCc2ccccc2)Cc2ccc(C(=O)NCCSSCCNC(=O)c3ccc(CN(CC(=O)NCc4ccccc4)C(=O)c4ccc(N(C)C)cc4)cc3)cc2)cc1	> 100 µM	> 100 µM	> 100 µM	4.54 µM	> 100 µM	> 10 µM	–	–	–	–	–	–	–	–
CN(C)c1ccc(C(=O)N(CCCCCC(=O)O)CC(=O)NCc2ccccc2)cc1	> 100 µM	> 100 µM	> 100 µM	> 10 µM	> 100 µM	> 10 µM	–	–	–	–	–	–	–	–
CN(C)c1ccc(C(=O)N(CCCCCCNC(=O)c2ccccc2O)CC(=O)NCc2ccccc2)cc1	> 100 µM	–	–	> 10 µM	–	> 10 µM	–	–	–	–	–	–	–	–
CSc1ccccc1C(=O)Nc1ccc(CN(CC(=O)NCc2ccccc2)C(=O)c2ccc(N(C)C)cc2)cc1	> 100 µM	> 100 µM	> 100 µM	> 10 µM	–	> 10 µM	–	–	> 10 µM	–	–	–	–	–
CSc1ccccc1C(=O)NCCCCCCN(CC(=O)NCc1ccccc1)C(=O)c1ccc(N(C)C)cc1	65.6 µM	8.97 µM	68.9 µM	> 10 µM	6.66 µM	> 10 µM	–	–	> 10 µM	–	–	–	–	–
Nc1cc(F)ccc1NC(=O)/C=C/c1cnn(C/C=C/c2ccccc2)c1	–	–	–	–	–	–	–	–	–	–	12.9 µM	inactive	49.4 µM	43.1 µM
CN(C)c1ccc(C(=O)N(CC(=O)NCc2ccccc2)Cc2ccc(C(=O)Nc3ccccc3N)cc2)cc1	–	–	–	–	–	–	–	79.4 µL/min/mg	–	17.5 min	–	–	–	–
CC(=O)SCC(=O)NCCCCCCN(CC(=O)NCc1ccccc1)C(=O)c1ccc(N(C)C)cc1	28.8 µM	> 100 µM	33.4 µM	–	85.1 µM	–	–	–	–	–	–	–	–	–
CSc1ccccc1NC(=O)CCCCCN(CC(=O)NCc1ccccc1)C(=O)c1ccc(N(C)C)cc1	61.3 µM	56.9 µM	79.4 µM	> 10 µM	28.7 µM	> 10 µM	–	–	> 10 µM	–	–	–	–	–

The next lines start with results.

IC50 (cells)	IC50 (Plasmodium falciparum [1])	IC50 (CAL-27 [2])	IC50 (Histone deacetylase 1)	IC50 (Plasmodium falciparum [3])	IC50 [4]	t1/2 ([5]; microsomes)	CLH [6]	IC50 (Histone deacetylase 3)	half-life ([5]; liver microsomes)	SMILES	IC50 (A2780)	Activity (A2780cisR)	IC50 [7]	IC50 (CAL-27 [8])
> 100 µM	11.7 µM	98.7 µM	7.1 µM	> 100 µM	> 10 µM	–	–	–	–	CN(C)c1ccc(C(=O)N(CCCCCC(=O)NCCSSCCNC(=O)CCCCCN(CC(=O)NCc2ccccc2)C(=O)c2ccc(N(C)C)cc2)CC(=O)NCc2ccccc2)cc1	–	–	–	–
> 100 µM	34.2 µM	> 100 µM	> 10 µM	36.8 µM	> 10 µM	–	–	–	–	CN(C)c1ccc(C(=O)N(CC(=O)NCc2ccccc2)Cc2ccc(-c3nnc(C(F)(F)F)o3)cc2)cc1	–	–	–	–
> 100 µM	> 100 µM	> 100 µM	> 10 µM	> 100 µM	> 10 µM	–	–	–	–	CNC(=O)CCCCCN(CC(=O)NCc1ccccc1)C(=O)c1ccc(N(C)C)cc1	–	–	–	–
–	–	–	–	–	–	15.04 min	92.2 µL/min/mg	–	–	CCCNNC(=O)c1ccc(CN(CC(=O)NCc2ccccc2)C(=O)c2ccc(N(C)C)cc2)cc1	–	–	–	–
55 µM	–	63.7 µM	> 10 µM	37.6 µM	> 10 µM	–	–	> 10 µM	–	CSc1ccccc1C(=O)NCCCCCN(CC(=O)NCc1ccccc1)C(=O)c1ccc(N(C)C)cc1	–	–	–	–
> 100 µM	34.9 µM	70.9 µM	> 10 µM	23 µM	> 10 µM	–	–	> 10 µM	–	CSc1ccccc1C(=O)NCCCCCCCN(CC(=O)NCc1ccccc1)C(=O)c1ccc(N(C)C)cc1	–	–	–	–
> 100 µM	> 100 µM	> 100 µM	–	> 100 µM	–	–	–	–	–	CC(=O)SCC(=O)Nc1ccc(CN(CC(=O)NCc2ccccc2)C(=O)c2ccc(N(C)C)cc2)cc1	–	–	–	–
